From publication PMC9977398, “Next-generation membrane-active glycopeptide antibiotics that also inhibit bacterial cell division” (Chemical Science, 2023)
≈ marks a conversion by molar mass, not a printed value. Where two headings read alike, the source gives them in different places.

Columns and labels:
MRSA = assay: Membrane permeabilization assay, propidium iodide uptake; type: cell-based, S. aureus
Method: The kinetics of permeabilization of membranes of MRSA and B. subtilis by the compounds was measured by the uptake of propidium iodide (PI). […] When the membrane integrity is compromised, it enters the cell and fluoresces upon binding to the DNA. Both VanQbiph (4) and VanQAmC10 (8) permeabilized the membrane in a concentration-dependent manner (Fig. S2 ^†). […] They caused gradual permeabilization against the stationary phase cells of MRSA as well (Fig. 2F). The extent of permeabilization was higher for VanQAmC10 (8) than VanQbiph (4) against both the log-phase and stationary-phase bacteria similar to that observed during depolarisation.
50 μL of serially diluted compound was added into 96 well microtiter plates. Freshly drawn, heparanized human blood was centrifuged down to obtain the erythrocytes and re-suspended to 5 vol % in PBS (pH 7.4). 150 μL of the erythrocyte suspension was added to the serially diluted compounds (from 500 µM to 2 µM). One set without compound and other with 50 μL of 1 vol % solution of Triton X-100 were kept as controls. […] 100 μL of the supernatant from each well were transferred into fresh microtiter plates, and A540 was measured.
% haemolysis = (A - A0)/(Atotal -A0) × 100, where A is the absorbance of the test well, A 0 the absorbance of the negative controls (without compound), and A total the absorbance of 100 % hemolysis wells (with Triton X -100), all at 540 nm. […]
2 h post incubation with dye, the absorbance was measured at 570 nm using 600 nm as […]
The bactericidal activity of the compounds was evaluated with the time kill kinetics assay.
MRSA ATCC 33591 cells were cultured in nutrient media at 37°C for 6 h. […] The bacterial colonies were counted and results are represented in logarithmic scale, i.e. log10 (CFU/mL). […]
were added to it the wells containing bacterial suspension. Fluorescence has monitored at excitation wavelength of 535 nm (slit width: 10 nm) and emission wavelength of 617 nm (slit width: 5 nm). As a measure of inner membrane permeabilization the uptake of PI was monitor by the increase in fluorescence for 30-50 min. […]

[1] = tested on: MRSA, methicillin-resistant S. aureus (ATCC 33591); assay: MIC determination, micro-dilution broth; type: cell-based; conditions: Staphylococcus aureus, read-out: Minimum inhibitory concentration, MRSA
Method: (§1) The increase in the carbon content of substituted moieties from six (1) to seven (2 and 3) to ten (5) to twelve (4), increased activity. […]
(§2) Test compound was assayed in a micro -dilution broth format as per the CLSI guideline. The bacterial freeze dried stock samples were stored at -80 °C. About 5 μL of these stocks were added to 3 mL of the respective broth and the culture was grown for 6 h at 37°C with prior to the experiments. This 6 h grown culture was diluted to give effective cell concentration of 10 5 CFU/mL which was then used for determining MIC. Compounds were serially diluted 2 -fold, in sterile millipore water and 50 μL of these serial dilutions were added to the wells of 96 well plate followed by the addition of about 150 μL of bacterial solution. The plates were then incubated for 18-24 h at 37 °C. The O.D. value at 600 nm was recorded using TECAN (Infinite series, M200 pro) Plate Reade r. Each concentration had triplicate values and the whole experiment was done at least twice and the MIC value was determined by taking the average of triplicate O. D. values for each concentration and plotting it against concentration. The data was then subjected to sigmoidal fitting. From the curve the MIC value was determined, as the point where the O. D. was similar to that of control having no bacteria.

[2] = tested on: AB 1425 (A. baumannii MTCC 1425); assay: MIC determination, micro-dilution broth; type: cell-based
Method: as §1, §2

[3] = tested on: PA R590 (MDR strain of P. aeruginosa); assay: MIC determination, micro-dilution broth; type: cell-based
Method: as §1, §2

AB R674 (A. baumannii) = assay: MIC determination, micro-dilution broth; type: cell-based
Method: as §1, §2

planktonic cells = assay: Viability of planktonic cells post-treatment in HEPES-glucose; type: cell-based
Method: To confirm that membrane perturbation contributed to cell death, the bacterial viability was evaluated under conditions similar to the mechanistic studies. […] The number of viable cells was lower upon treatment with VanQAmC10 (8) than when treated with VanQbiph (4) at the same concentration. […] The stronger membrane–perturbation properties of VanQAmC10 (8) therefore contribute to higher activity against both exponentially growing and stationary phase bacteria.

[4] = Acinetobacter baumannii, MTCC1425, read-out: Minimum inhibitory concentration, AB 1425
[5] = Pseudomonas aeruginosa, read-out: Minimum inhibitory concentration, PA R590
[6] = Acinetobacter baumannii, read-out: Minimum inhibitory concentration, AB R674

Structure (SMILES)	effect on membrane integrity (PI uptake) (MRSA)	MIC [1] [µM]	MIC [2, 4] [µM]	MIC [3, 5] [µM]	MIC (AB R674 (A. baumannii); [6]) [µM]	effect on viable cells (planktonic cells; 40 μM)	time to membrane permeabilization (MRSA; exponentially growing MRSA, 10 μM, PI uptake) [min]	reduction in viable cells (planktonic cells; 5 μM) [log CFU mL^−1]	reduction in viable cells (planktonic cells; 10 μM) [log CFU mL^−1]	MIC ([1]; MRSA ATCC 33591) [µM]	MIC ([2]; Acinetobacter baumannii, MTCC1425; read-out: Minimum inhibitory concentration, AB 1425) [µM]	MIC ([3]; Pseudomonas aeruginosa; read-out: Minimum inhibitory concentration, PA R590) [µM]	MIC (AB R674 (A. baumannii); Acinetobacter baumannii; read-out: Minimum inhibitory concentration, AB R674) [µM]
CN[C@H](CC(C)C)C(=O)N[C@H]1C(=O)N[C@@H](CC(N)=O)C(=O)N[C@H]2C(=O)N[C@H]3C(=O)N[C@H](C(=O)N[C@H](C(=O)O)c4cc(O)cc(O)c4-c4cc3ccc4O)[C@H](O)c3ccc(c(Cl)c3)Oc3cc2cc(c3O[C@@H]2O[C@H](CO)[C@@H](O)[C@H](O)[C@H]2O[C@H]2C[C@](C)(N)[C@H](O)[C@H](C)O2)Oc2ccc(cc2Cl)[C@H]1O [Vancomycin, reference compound]	does not affect the membrane integrity	0.6 (≈ 0.87 µg/mL)	100 (≈ 145 µg/mL)	100 (≈ 145 µg/mL)	100 (≈ 145 µg/mL)	did not reduce the viability of bacteria							
CCCCCCCCCCNC(=O)C[N+](C)(C)CCCNC(=O)C1NC(=O)C2NC(=O)C(NC(=O)C3NC(=O)C(CC(N)=O)NC(=O)C(NC(=O)C(CC(C)C)NC)C(O)c4ccc(c(Cl)c4)Oc4cc3cc(c4OC3OC(CO)C(O)C(O)C3OC3CC(C)(N)C(O)C(C)O3)Oc3ccc(cc3Cl)C2O)c2ccc(O)c(c2)-c2c(O)cc(O)cc21 (centres unmarked) [VanQAmC10 (8)]		0.4	6.3	3.1	10		≤ 4	2	4				
CNC(CC(C)C)C(=O)NC1C(=O)NC(CC(N)=O)C(=O)NC2C(=O)NC3C(=O)NC(C(=O)NC(C(=O)NCCC[N+](C)(C)Cc4ccc(-c5ccccc5)cc4)c4cc(O)cc(O)c4-c4cc3ccc4O)C(O)c3ccc(c(Cl)c3)Oc3cc2cc(c3OC2OC(CO)C(O)C(O)C2OC2CC(C)(N)C(O)C(C)O2)Oc2ccc(cc2Cl)C1O (centres unmarked) [VanQbiph (4)]	slower permeabilization							0.8	2.2	0.5	15.7	> 30	24.5
